Read-outs that look alike come from different tables or passages of the source.
Legend:
HCV GT1b(Con1) replicon = assay: HCV replicon luciferase reporter assay, genotype 1b; assay type: cell-based, HCV genotype 1b; details: Hepatitis C virus, 72 h, HUH-7 cells, Renilla luciferase, 3 days incubation
Summary of the method: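 HUH-7 cells stably carrying a Con1 GT1b replicon with Renilla luciferase and Ser1179Ile adaptive mutation; 3.0×10^3 cells/well, DMEM 4% FCS, 0.5% DMSO, twenty-point 3-fold titration, 3 days 37 °C. Luminescence 2 h after 7.5 μM EnduRen; EC50 by four-parameter logistic fit. CC50 from multiplexed Cell Titer-Blue fluorescence (8 h).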

HCV GT1a(H77) replicon = assay: HCV replicon luciferase reporter assay, genotype 1a; assay type: cell-based, HCV genotype 1a; details: Hepatitis C virus, 72 h, HUH-7 cells, Renilla luciferase, 3 days incubation
Summary of the method: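 Huh-7 cells stably carried a GT1a(H77) Renilla luciferase replicon with NS3 P1496L and NS5A S2204I adaptive mutations. Luminescence was read after 2 h with 7.5 μM EnduRen, and EC50 came from a four-parameter logistic fit; CC50 came from multiplexed Cell Titer-Blue (8 h).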

CC[C@@H]1O[C@H](C)CC/C=C\[C@@H]2C[C@@]2(C(=O)NS(=O)(=O)C2(C)CC2)NC(=O)[C@@H]2C[C@@H](Oc3cc(-c4ccc(OC(C)C)cc4)nc(-c4cncs4)c3)CN2C(=O)[C@H]1NC(=O)OC(C)(C)C(F)(F)F [Compound 1033, 1,1,1-trifluoro-2-methylpropan-2-yl ((2R,6S,7S,9R,13aS,14aR,16aS,Z)-7-ethyl-2-((2-(4-isopropoxyphenyl)-6-(thiazol-5-yl)pyridin-4-yl)oxy)-9-methyl-14a-(((1-methylcyclopropyl)sulfonyl)carbamoyl)-5,16-dioxo-2,3,5,6,7,9,10,11,13a,14,14a,15,16,16a-tetradecahydro-1H-cyclopropa[i]pyrrolo[1,2-e][1,5,8]oxadiazacyclopentadecin-6-yl)carbamate]
EC50 (HCV GT1b(Con1) replicon; read-out: LE_1b (EC50, range)): 0.51 to 1 nM | EC50 (HCV GT1a(H77) replicon; read-out: LE_1a (EC50, range)): 1.01 to 5 nM

Cc1cnc(-c2cc(O[C@@H]3C[C@H]4C(=O)N[C@]5(C(=O)NS(=O)(=O)C6(C)CC6)C[C@H]5/C=C\CC[C@@H](C)C[C@@H](C)[C@H](NC(=O)OC5(C(F)(F)F)CCCOC5)C(=O)N4C3)ccn2)s1 (stereo partly drawn) [Compound 1044, 3-(trifluoromethyl)tetrahydro-2H-pyran-3-yl ((2R,6S,7R,9R,13aS,14aR,16aS,Z)-7,9-dimethyl-14a-(((1-methylcyclopropyl)sulfonyl)carbamoyl)-2-((2-(5-methylthiazol-2-yl)pyridin-4-yl)oxy)-5,16-dioxo-1,2,3,5,6,7,8,9,10,11,13a,14,14a,15,16,16a-hexadecahydrocyclopropa[e]pyrrolo[1,2-a][1,4]diazacyclopentadecin-6-yl)carbamate]
EC50 (HCV GT1b(Con1) replicon; read-out: LE_1b (EC50, range)): 0.51 to 1 nM | EC50 (HCV GT1a(H77) replicon; read-out: LE_1a (EC50, range)): 1.01 to 5 nM

C[C@@H]1CC/C=C\[C@@H]2C[C@@]2(C(=O)NS(=O)(=O)C2(C)CC2)NC(=O)[C@@H]2C[C@@H](Oc3cc(-c4cccnc4)nc(-c4nccs4)c3)CN2C(=O)[C@@H](NC(=O)OC2(C(F)(F)F)CCCOC2)[C@H](C)C1 (stereo partly drawn) [Compound 1049, 3-(trifluoromethyl)tetrahydro-2H-pyran-3-yl ((2R,6S,7R,9R,13aS,14aR,16aS,Z)-7,9-dimethyl-14a-(((1-methylcyclopropyl)sulfonyl)carbamoyl)-5,16-dioxo-2-((6-(thiazol-2-yl)-[2,3′-bipyridin]-4-yl)oxy)-1,2,3,5,6,7,8,9,10,11,13a,14,14a,15,16,16a-hexadecahydrocyclopropa[e]pyrrolo[1,2-a][1,4]diazacyclopentadecin-6-yl)carbamate]
EC50 (HCV GT1b(Con1) replicon; read-out: LE_1b (EC50, range)): 1.01 to 5 nM | EC50 (HCV GT1a(H77) replicon; read-out: LE_1a (EC50, range)): 5.01 to 35 nM

CC(C)Oc1ccc(-c2cc(O[C@@H]3C[C@H]4C(=O)N[C@]5(C(=O)NS(=O)(=O)C6(C)CC6)C[C@H]5/C=C\CC[C@@H](C)C[C@@H](C)[C@H](NC(=O)OC(C)(C)C(F)(F)F)C(=O)N4C3)cc(-c3ccccn3)n2)cc1 [Compound 1021, 1,1,1-trifluoro-2-methylpropan-2-yl ((2R,6S,7R,9R,13aS,14aR,16aS,Z)-2-((6-(4-isopropoxyphenyl)-[2,2′-bipyridin]-4-yl)oxy)-7,9-dimethyl-14a-(((1-methylcyclopropyl)sulfonyl)carbamoyl)-5,16-dioxo-1,2,3,5,6,7,8,9,10,11,13a,14,14a,15,16,16a-hexadecahydrocyclopropa[e]pyrrolo[1,2-a][1,4]diazacyclopentadecin-6-yl)carbamate]
EC50 (HCV GT1b(Con1) replicon; read-out: LE_1b (EC50, range)): 0.51 to 1 nM | EC50 (HCV GT1a(H77) replicon; read-out: LE_1a (EC50, range)): 1.01 to 5 nM

CC[C@@H]1O[C@H](C)CC/C=C\[C@@H]2C[C@@]2(C(=O)NS(=O)(=O)C2(C)CC2)NC(=O)[C@@H]2C[C@@H](Oc3cc(-c4ccc(OC(C)C)cc4)nc(-c4ccccn4)c3)CN2C(=O)[C@H]1NC(=O)OC1(C(F)(F)F)CCCOC1 (stereo partly drawn) [Compound 1037, 3-(trifluoromethyl)tetrahydro-2H-pyran-3-yl ((2R,6S,7S,9R,13aS,14aR,16aS,Z)-7-ethyl-2-((6-(4-isopropoxyphenyl)-[2,2′-bipyridin]-4-yl)oxy)-9-methyl-14a-(((1-methylcyclopropyl)sulfonyl)carbamoyl)-5,16-dioxo-2,3,5,6,7,9,10,11,13a,14,14a,15,16,16a-tetradecahydro-1H-cyclopropa[i]pyrrolo[1,2-e][1,5,8]oxadiazacyclopentadecin-6-yl)carbamate]
EC50 (HCV GT1b(Con1) replicon; read-out: LE_1b (EC50, range)): 0.1 to 0.5 nM | EC50 (HCV GT1a(H77) replicon; read-out: LE_1a (EC50, range)): 1.01 to 5 nM

CC[C@@H]1O[C@H](C)CC/C=C\[C@@H]2C[C@@]2(C(=O)NS(=O)(=O)C2(C)CC2)NC(=O)[C@@H]2C[C@@H](Oc3cc(-c4ccc(C(F)(F)F)cc4)nc(-c4nccs4)c3)CN2C(=O)[C@H]1NC(=O)OC1(C(F)(F)F)CCCOC1 (stereo partly drawn) [Compound 1040, 3-(trifluoromethyl)tetrahydro-2H-pyran-3-yl ((2R,6S,7S,9R,13aS,14aR,16aS,Z)-7-ethyl-9-methyl-14a-(((1-methylcyclopropyl)sulfonyl)carbamoyl)-5,16-dioxo-2-((2-(thiazol-2-yl)-6-(4-(trifluoromethyl)phenyl)pyridin-4-yl)oxy)-2,3,5,6,7,9,10,11,13a,14,14a,15,16,16a-tetradecahydro-1H-cyclopropa[i]pyrrolo[1,2-e][1,5,8]oxadiazacyclopentadecin-6-yl)carbamate]
EC50 (HCV GT1b(Con1) replicon; read-out: LE_1b (EC50, range)): 0.1 to 0.5 nM | EC50 (HCV GT1a(H77) replicon; read-out: LE_1a (EC50, range)): 0.51 to 1 nM

C[C@@H]1CC/C=C\[C@@H]2C[C@@]2(C(=O)NS(=O)(=O)C2(C)CC2)NC(=O)[C@@H]2C[C@@H](Oc3cc(-c4nccs4)nc(-c4nccs4)c3)CN2C(=O)[C@@H](NC(=O)OC(C)(C)C(F)(F)F)[C@H](C)C1 [Compound 1023, 1,1,1-trifluoro-2-methylpropan-2-yl ((2R,6S,7R,9R,13aS,14aR,16aS,Z)-2-((2,6-di(thiazol-2-yl)pyridin-4-yl)oxy)-7,9-dimethyl-14a-(((1-methylcyclopropyl)sulfonyl)carbamoyl)-5,16-dioxo-1,2,3,5,6,7,8,9,10,11,13a,14,14a,15,16,16a-hexadecahydrocyclopropa[e]pyrrolo[1,2-a][1,4]diazacyclopentadecin-6-yl)carbamate]
EC50 (HCV GT1b(Con1) replicon; read-out: LE_1b (EC50)): 0.4 nM | EC50 (HCV GT1b(Con1) replicon; read-out: LE_1b (EC50, range)): 0.1 to 0.5 nM | EC50 (HCV GT1a(H77) replicon; read-out: LE_1a (EC50)): 0.46 nM | EC50 (HCV GT1a(H77) replicon; read-out: LE_1a (EC50, range)): 0.1 to 0.5 nM

CC(C)Oc1ccc(-c2cc(O[C@@H]3C[C@H]4C(=O)N[C@]5(C(=O)NS(=O)(=O)C6(C)CC6)C[C@H]5/C=C\CC[C@H](C)C[C@@H](C)[C@H](NC(=O)OC(C)(C)C(F)(F)F)C(=O)N4C3)cc(-c3ccccn3)n2)cc1 [Compound 1022, 1,1,1-trifluoro-2-methylpropan-2-yl ((2R,6S,7R,9S,13aS,14aR,16aS,Z)-2-((6-(4-isopropoxyphenyl)-[2,2′-bipyridin]-4-yl)oxy)-7,9-dimethyl-14a-(((1-methylcyclopropyl)sulfonyl)carbamoyl)-5,16-dioxo-1,2,3,5,6,7,8,9,10,11,13a,14,14a,15,16,16a-hexadecahydrocyclopropa[e]pyrrolo[1,2-a][1,4]diazacyclopentadecin-6-yl)carbamate]
EC50 (HCV GT1b(Con1) replicon; read-out: LE_1b (EC50, range)): 1.01 to 5 nM | EC50 (HCV GT1a(H77) replicon; read-out: LE_1a (EC50, range)): 5.01 to 35 nM

CC(C)Oc1ccc(-c2cc(O[C@@H]3C[C@H]4C(=O)N[C@]5(C(=O)NS(=O)(=O)C6(C)CC6)C[C@H]5/C=C\CC[C@@H](C)C[C@@H](C)[C@H](NC(=O)OC(C)(C)C(F)(F)F)C(=O)N4C3)cc(-c3cncs3)n2)cc1 [Compound 1003, 1,1,1-trifluoro-2-methylpropan-2-yl ((2R,6S,7R,9R,13aS,14aR,16aS,Z)-2-((2-(4-isopropoxyphenyl)-6-(thiazol-5-yl)pyridin-4-yl)oxy)-7,9-dimethyl-14a-(((1-methylcyclopropyl)sulfonyl)carbamoyl)-5,16-dioxo-1,2,3,5,6,7,8,9,10,11,13a,14,14a,15,16,16a-hexadecahydrocyclopropa[e]pyrrolo[1,2-a][1,4]diazacyclopentadecin-6-yl)carbamate]
EC50 (HCV GT1b(Con1) replicon; read-out: LE_1b (EC50, range)): 1.01 to 5 nM | EC50 (HCV GT1a(H77) replicon; read-out: LE_1a (EC50, range)): 1.01 to 5 nM

C[C@H]1CC/C=C\[C@@H]2C[C@@]2(C(=O)NS(=O)(=O)C2(C)CC2)NC(=O)[C@@H]2C[C@@H](Oc3cc(-c4nccs4)ccn3)CN2C(=O)[C@@H](NC(=O)OC(C)(C)C(F)(F)F)[C@H](C)C1 [Compound 1032, 1,1,1-trifluoro-2-methylpropan-2-yl ((2R,6S,7R,9S,13aS,14aR,16aS,Z)-7,9-dimethyl-14a-(((1-methylcyclopropyl)sulfonyl)carbamoyl)-5,16-dioxo-2-((4-(thiazol-2-yl)pyridin-2-yl)oxy)-1,2,3,5,6,7,8,9,10,11,13a,14,14a,15,16,16a-hexadecahydrocyclopropa[e]pyrrolo[1,2-a][1,4]diazacyclopentadecin-6-yl)carbamate]
EC50 (HCV GT1b(Con1) replicon; read-out: LE_1b (EC50, range)): 5.01 to 35 nM | EC50 (HCV GT1a(H77) replicon; read-out: LE_1a (EC50, range)): 5.01 to 35 nM

CC(C)Oc1ccc(-c2cc(O[C@@H]3C[C@H]4C(=O)N[C@]5(C(=O)NS(=O)(=O)C6(C)CC6)C[C@H]5/C=C\CC[C@@H](C)C[C@@H](C)[C@H](NC(=O)OC(C)(C)C(F)(F)F)C(=O)N4C3)cc(-c3nccs3)n2)cn1 [Compound 1046, 1,1,1-trifluoro-2-methylpropan-2-yl ((2R,6S,7R,9R,13aS,14aR,16aS,Z)-2-((6′-isopropoxy-6-(thiazol-2-yl)-[2,3′-bipyridin]-4-yl)oxy)-7,9-dimethyl-14a-(((1-methylcyclopropyl)sulfonyl)carbamoyl)-5,16-dioxo-1,2,3,5,6,7,8,9,10,11,13a,14,14a,15,16,16a-hexadecahydrocyclopropa[e]pyrrolo[1,2-a][1,4]diazacyclopentadecin-6-yl)carbamate]
EC50 (HCV GT1b(Con1) replicon; read-out: LE_1b (EC50, range)): 1.01 to 5 nM | EC50 (HCV GT1a(H77) replicon; read-out: LE_1a (EC50, range)): 1.01 to 5 nM
